Laboratory results reported in patent US12331054B2, “Perk inhibiting imidazolopyrazine compounds” (HiberCell, Inc., priority 2019, dated 2025).

Legend:
[1] = test system: eIF2α in HEK293-EGFP-eIF2α cells; assay: PERK Cellular Assay (HEK293-EGFP-eIF2α cells, tunicamycin-induced ER stress, TR-FRET); type: cell-based; conditions: tunicamycin 2 hours
Procedure, shortened: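 After 2 h tunicamycin ([…]) stress following 30 min compound pretreatment at 37 °C, lysed HEK293-EGFP-eIF2α cells were read by TR-FRET. IC50 derived by 4-parameter logistic fitting of percent inhibition, DMSO-normalized, from 10-point 3-fold dilutions.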

[2] = biological target: Recombinant human EIF2AK3 (PERK) catalytic domain (amino acids 536-1116) (Homo sapiens (Human), UniProt Q9NZJ5); assay: PERK In Vitro Activity Assay (isolated), TR-FRET kinase assay; conditions: isolated PERK enzyme, 1.5 μM ATP, read-out: Biochemical IC50
Procedure, shortened: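 IC50 values come from 4-parameter logistic fits of TR-FRET ratios, read after 90 min with 2 nM terbium-labelled phospho-eIF2a antibody following an EDTA stop (10 mM final). The kinase reaction ran 45 min at room temperature, started by adding PERK catalytic domain to 100–200 nM GFP-eIF2a in HEPES pH 7.5 buffer with MgCl2, EGTA and Brij-35.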

Sequence of Recombinant human EIF2AK3 (PERK) catalytic domain (amino acids 536-1116) (Q9NZJ5 536-1116): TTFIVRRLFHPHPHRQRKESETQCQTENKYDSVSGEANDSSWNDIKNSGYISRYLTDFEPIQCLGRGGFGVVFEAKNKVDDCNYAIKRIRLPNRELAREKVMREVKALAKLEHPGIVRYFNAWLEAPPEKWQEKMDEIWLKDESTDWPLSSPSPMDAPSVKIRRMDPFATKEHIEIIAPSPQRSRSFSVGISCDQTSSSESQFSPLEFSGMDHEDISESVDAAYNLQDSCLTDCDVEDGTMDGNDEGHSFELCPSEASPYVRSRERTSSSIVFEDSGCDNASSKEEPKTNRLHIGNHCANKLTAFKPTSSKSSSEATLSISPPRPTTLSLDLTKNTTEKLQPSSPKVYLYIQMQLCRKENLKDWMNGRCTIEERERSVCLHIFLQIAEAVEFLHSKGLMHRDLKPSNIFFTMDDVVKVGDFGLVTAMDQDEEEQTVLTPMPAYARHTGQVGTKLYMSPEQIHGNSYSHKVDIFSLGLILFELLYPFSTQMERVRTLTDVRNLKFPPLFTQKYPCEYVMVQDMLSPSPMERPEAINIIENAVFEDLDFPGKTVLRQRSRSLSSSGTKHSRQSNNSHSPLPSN

IC50 [2] [nM]	Compound	IC50 [1] [nM]	IC50 ([1]; 2 h) [nM]
1 to 25	Cc1cnc(N)c2c(-c3ccc(NC(=O)C(O)c4cccc(F)c4)cc3)nc(C)n12 (stereo not drawn) [Example 68, N-(4-(8-amino-3,5-dimethylimidazo [1,5-a]pyrazin-1-yl)phenyl)-2-(3-fluorophenyl)-2-hydroxyacetamide]	101 to 250	–
1 to 25	Cc1cnc(N)c2c(-c3ccc(NC(=O)C(O)c4cccc(F)c4)cc3)nc(C)n12 (stereo not drawn) [Example 69, N-(4-(8-amino-3,5-dimethylimidazo [1,5-a]pyrazin-1-yl)phenyl)-2-(3-fluorophenyl)-2-hydroxyacetamide]	1 to 25	–
1 to 25	Cc1cnc(N)c2c(-c3ccc(NC(=O)C(O)c4cccc(F)c4)cc3F)nc(C)n12 (stereo not drawn) [Example 70, N-(4-(8-amino-3,5-dimethylimidazo [1,5-a]pyrazin-1-yl)-3-fluorophenyl)-2-(3-fluorophenyl)-2-hydroxy-acetamide]	1 to 25	–
1 to 25	Cc1cnc(N)c2c(-c3ccc(NC(=O)C(O)c4cccc(F)c4)cc3F)nc(C)n12 (stereo not drawn) [Example 71, N-(4-(8-amino-3,5-dimethylimidazo [1,5-a]pyrazin-1-yl)-3-fluorophenyl)-2-(3-fluorophenyl)-2-hydroxy-acetamide]	51 to 100	–
1 to 25	[2H]C([2H])([2H])c1nc(-c2ccc(NC(=O)C(O)c3cccc(F)c3)cc2F)c2c(N)ncc(C)n12 (stereo not drawn) [Example 72, N-[4-[8-amino-5-methyl-3-(trideuteriomethyl)imidazo[1,5-a]pyrazin-1-yl]-3-fluoro-phenyl]-2-(3-fluorophenyl)-2-hydroxy-acetamide]	–	1 to 25
1 to 25	[2H]C([2H])([2H])c1nc(-c2ccc(NC(=O)C(O)c3cccc(F)c3)cc2F)c2c(N)ncc(Cl)n12 (stereo not drawn) [Example 74, N-[4-[8-amino-5-chloro-3-(trideuteriomethyl)imidazo[1,5-a]pyrazin-1-yl]-3-fluoro-phenyl]-2-(3-fluorophenyl)-2-hydroxy-acetamide]	1 to 25	–
1 to 25	[2H]C([2H])([2H])c1nc(-c2ccc(NC(=O)C(O)c3cccc(F)c3)cc2F)c2c(N)ncc(Cl)n12 (stereo not drawn) [Example 75, N-[4-[8-amino-5-chloro-3-(trideuteriomethyl)imidazo[1,5-a]pyrazin-1-yl]-3-fluoro-phenyl]-2-(3-fluorophenyl)-2-hydroxy-acetamide]	26 to 50	–
1 to 25	[2H]C([2H])([2H])c1nc(-c2ccc(NC(=O)C(O)c3cccc(F)c3)cc2F)c2c(N)ncc(C(F)(F)F)n12 (stereo not drawn) [Example 76, N-[4-[8-amino-3-(trideuteriomethyl)-5-(trifluoromethyl)imidazo[1,5-a]pyrazin-1-yl]-3-fluoro-phenyl]-2-(3-fluorophenyl)-2-hydroxy-acetamide]	1 to 25	–
1 to 25	[2H]C([2H])([2H])c1nc(-c2ccc(NC(=O)C(O)c3cccc(F)c3)cc2F)c2c(N)ncc(C(F)(F)F)n12 (stereo not drawn) [Example 77, N-[4-[8-amino-3-(trideuteriomethyl)-5-(trifluoromethyl)imidazo[1,5-a]pyrazin-1-yl]-3-fluoro-phenyl]-2-(3-fluorophenyl)-2-hydroxy-acetamide]	51 to 100	–
1 to 25	Cc1cnc(N)c2c(-c3ccc(NC(=O)C(O)c4cccc(Cl)c4)cc3F)nc(C)n12 (stereo not drawn) [Example 78, N-(4-(8-amino-3,5-dimethylimidazo [1,5-a]pyrazin-1-yl)-3-fluorophenyl)-2-(3-chlorophenyl)-2-hydroxy-acetamide]	–	1 to 25
1 to 25	[2H]C([2H])([2H])c1nc(-c2ccc(NC(=O)C(O)c3cccc(Cl)c3)cc2F)c2c(N)nc(C)cn12 (stereo not drawn) [Example 80, N-[4-[8-amino-6-methyl-3-(trideuteriomethyl)imidazo[1,5-a]pyrazin-1-yl]-3-fluoro-phenyl]-2-(3-chlorophenyl)-2-hydroxy-acetamide]	1 to 25	–
1 to 25	[2H]C([2H])([2H])c1nc(-c2ccc(NC(=O)C(O)c3cccc(Cl)c3)cc2F)c2c(N)nc(C)cn12 (stereo not drawn) [Example 81, N-[4-[8-amino-6-methyl-3-(trideuteriomethyl)imidazo[1,5-a]pyrazin-1-yl]-3-fluoro-phenyl]-2-(3-chlorophenyl)-2-hydroxy-acetamide]	101 to 250	–
1 to 25	[2H]C([2H])([2H])c1nc(-c2ccc(NC(=O)C(O)c3cccc(Cl)c3)cc2F)c2c(N)ncc(C(F)(F)F)n12 (stereo not drawn) [Example 82, N-[4-[8-amino-3-(trideuteriomethyl)-5-(trifluoromethyl)imidazo[1,5-a]pyrazin-1-yl]-3-fluoro-phenyl]-2-(3-chlorophenyl)-2-hydroxy-acetamide]	1 to 25	–
1 to 25	[2H]C([2H])([2H])c1nc(-c2ccc(NC(=O)C(O)c3cccc(Cl)c3)cc2F)c2c(N)ncc(C(F)(F)F)n12 (stereo not drawn) [Example 83, N-[4-[8-amino-3-(trideuteriomethyl)-5-(trifluoromethyl)imidazo[1,5-a]pyrazin-1-yl]-3-fluoro-phenyl]-2-(3-chlorophenyl)-2-hydroxy-acetamide]	51 to 100	–
1 to 25	[2H]C([2H])([2H])c1nc(-c2ccc(NC(=O)C(O)c3cccc(Cl)c3)cc2F)c2c(N)ncc(C)n12 (stereo not drawn) [Example 84, N-[4-[8-amino-5-methyl-3-(trideuteriomethyl)imidazo[1,5-a]pyrazin-1-yl]-3-fluoro-phenyl]-2-(3-chlorophenyl)-2-hydroxy-acetamide]	1 to 25	–
1 to 25	[2H]C([2H])([2H])c1nc(-c2ccc(NC(=O)C(O)c3cccc(Cl)c3)cc2F)c2c(N)ncc(C)n12 (stereo not drawn) [Example 85, N-[4-[8-amino-5-methyl-3-(trideuteriomethyl)imidazo[1,5-a]pyrazin-1-yl]-3-fluoro-phenyl]-2-(3-chlorophenyl)-2-hydroxy-acetamide]	51 to 100	–
1 to 25	Cc1cccc(C(O)C(=O)Nc2ccc(-c3nc(C)n4c(C)cnc(N)c34)c(F)c2)c1 (stereo not drawn) [Example 88, N-(4-(8-amino-3,5-dimethylimidazo [1,5-a]pyrazin-1-yl)-3-fluoro-phenyl)-2-hydroxy-2-(m-tolyl)acetamide]	1 to 25	–
1 to 25	Cc1cccc(C(O)C(=O)Nc2ccc(-c3nc(C)n4c(C)cnc(N)c34)c(F)c2)c1 (stereo not drawn) [Example 89, N-(4-(8-amino-3,5-dimethylimidazo [1,5-a]pyrazin-1-yl)-3-fluoro-phenyl)-2-hydroxy-2-(m-tolyl)acetamide]	51 to 100	–
1 to 25	[2H]C([2H])([2H])c1nc(-c2ccc(NC(=O)C(O)c3cccc(C)c3)cc2F)c2c(N)ncc(C)n12 (stereo not drawn) [Example 90, N-[4-[8-amino-5-methyl-3-(trideuteriomethyl)imidazo[1,5-a]pyrazin-1-yl]-3-fluoro-phenyl]-2-hydroxy-2-(m-tolyl)acetamide]	–	26 to 50
1 to 25	[2H]C([2H])([2H])c1nc(-c2ccc(NC(=O)C(O)c3cccc(C)c3)cc2F)c2c(N)ncc(C)n12 (stereo not drawn) [Example 91, N-[4-[8-amino-5-methyl-3-(trideuteriomethyl)imidazo[1,5-a]pyrazin-1-yl]-3-fluoro-phenyl]-2-hydroxy-2-(m-tolyl)acetamide]	51 to 100	–
1 to 25	Cc1cnc(N)c2c(-c3ccc(NC(=O)C(O)c4cccc(C(F)(F)F)c4)cc3F)nc(C)n12 (stereo not drawn) [Example 92, N-(4-(8-amino-3,5-dimethylimidazo [1,5-a]pyrazin-1-yl)-3-fluoro-phenyl)-2-hydroxy-2-(3-(trifluoromethyl)phenyl)acetamide]	1 to 25	–
